Converted amounts (≈) assume the structure as drawn.
Columns and labels:
[1] = tested on: HeLa; experiment: Cytotoxicity against human HeLa cells assessed as cell growth at 10^-4 M after 48 hrs by SRB assay relative to control; assay type: functional; details: read-out: Activity
[2] = tested on: HeLa; experiment: Cytotoxicity against human HeLa cells assessed as reduction in cell viability after 48 hrs by SRB assay; assay type: functional, cell-based
[3] = tested on: Pichia kudriavzevii; experiment: Antifungal activity against Candida krusei G03 after 24 to 48 hrs by macro-broth dilution method; assay type: functional
[4] = tested on: Staphylococcus aureus; experiment: Antibacterial activity against Staphylococcus aureus 209P assessed as zone of inhibition at 1 mg/ml by agar well diffusion method; assay type: functional; details: read-out: DIZ
[5] = tested on: HeLa; experiment: Cytotoxicity against human HeLa cells assessed as cell growth at 10^-6 M after 48 hrs by SRB assay relative to control; assay type: functional; details: read-out: Activity
[6] = tested on: Escherichia coli; experiment: Antibacterial activity against Escherichia coli ATCC 35421 assessed as zone of inhibition at 1 mg/ml by agar well diffusion method; assay type: functional; details: read-out: DIZ
[7] = tested on: Staphylococcus aureus; experiment: Antibacterial activity against Staphylococcus aureus 209P after 24 to 48 hrs by macro-broth dilution method; assay type: functional
[8] = tested on: HeLa; experiment: Cytotoxicity against human HeLa cells assessed as cell growth at 10^-5 M after 48 hrs by SRB assay relative to control; assay type: functional; details: read-out: Activity
[9] = tested on: Escherichia coli; experiment: Antibacterial activity against Escherichia coli ATCC 20732 after 24 to 48 hrs by macro-broth dilution method; assay type: functional
[10] = tested on: Nakaseomyces glabratus; experiment: Antifungal activity against Candida glabrata H04 after 24 to 48 hrs by macro-broth dilution method; assay type: functional
[11] = tested on: Pseudomonas aeruginosa; experiment: Antibacterial activity against Pseudomonas aeruginosa M5 after 24 to 48 hrs by macro-broth dilution method; assay type: functional
[12] = tested on: Candida albicans; experiment: Antifungal activity against Candida albicans A01 assessed as zone of inhibition at 5 mg/ml by agar well diffusion method; assay type: functional; details: read-out: DIZ
[13] = tested on: Escherichia coli; experiment: Antibacterial activity against Escherichia coli ATCC 35421 after 24 to 48 hrs by macro-broth dilution method; assay type: functional
[14] = tested on: Escherichia coli; experiment: Antibacterial activity against Escherichia coli ATCC 35421 assessed as zone of inhibition at 5 mg/ml by agar well diffusion method; assay type: functional; details: read-out: DIZ
[15] = tested on: Candida albicans; experiment: Antifungal activity against Candida albicans ATCC 10231 after 24 to 48 hrs by macro-broth dilution method; assay type: functional
[16] = tested on: Staphylococcus epidermidis; experiment: Antibacterial activity against Staphylococcus epidermidis 209E after 24 to 48 hrs by macro-broth dilution method; assay type: functional
[17] = tested on: Candida albicans; experiment: Antifungal activity against Candida albicans A01 after 24 to 48 hrs by macro-broth dilution method; assay type: functional
[18] = tested on: Candida albicans; experiment: Antifungal activity against Candida albicans A01 assessed as zone of inhibition at 1 mg/ml by agar well diffusion method; assay type: functional; details: read-out: DIZ
[19] = tested on: Pichia kudriavzevii; experiment: Antifungal activity against Candida krusei G06 after 24 to 48 hrs by macro-broth dilution method; assay type: functional
[20] = tested on: Nakaseomyces glabratus; experiment: Antifungal activity against Candida glabrata H05 after 24 to 48 hrs by macro-broth dilution method; assay type: functional
[21] = tested on: Staphylococcus aureus; experiment: Antibacterial activity against Staphylococcus aureus 209P assessed as zone of inhibition at 5 mg/ml by agar well diffusion method; assay type: functional; details: read-out: DIZ
[22] = tested on: Staphylococcus aureus; experiment: Antibacterial activity against methicillin-resistant Staphylococcus aureus 3710 after 24 to 48 hrs by macro-broth dilution method; assay type: functional
[23] = tested on: HeLa; experiment: Cytotoxicity against human HeLa cells assessed as cell growth at 10^-7 M after 48 hrs by SRB assay relative to control; assay type: functional; details: read-out: Activity
[24] = tested on: HeLa; experiment: Growth inhibition of human HeLa cells after 48 hrs by SRB assay; assay type: functional
[25] = tested on: Staphylococcus aureus; experiment: Antibacterial activity against methicillin-resistant Staphylococcus aureus ATCC 33591 after 24 to 48 hrs by macro-broth dilution method; assay type: functional

CS(=O)(=O)c1nc2cc(OCc3ccc(Cl)cc3)ccc2s1
growth at 100 µM [1]: -50.5%
Activity [2]: Dose-dependent effect
MIC [3]: 20 µg/mL (≈ 56.5 µM)
zone of inhibition at 1000 µg/mL [4]: 13 mm
growth at 1 µM [5]: 89.9%
zone of inhibition at 1000 µg/mL [6]: 9 mm
MIC [7]: 100 µg/mL (≈ 283 µM)
growth at 10 µM [8]: 60.8%
MIC [9]: 20 µg/mL (≈ 56.5 µM)
MIC [10]: 50 µg/mL (≈ 141 µM)
MIC [11]: 50 µg/mL (≈ 141 µM)
zone of inhibition at 5000 µg/mL [12]: 16 mm
MIC [13]: 20 µg/mL (≈ 56.5 µM)
zone of inhibition at 5000 µg/mL [14]: 10 mm
MIC [15]: 20 µg/mL (≈ 56.5 µM)
MIC [16]: 100 µg/mL (≈ 283 µM)
MIC [17]: 20 µg/mL (≈ 56.5 µM)
zone of inhibition at 1000 µg/mL [18]: 9 mm
MIC [19]: 20 µg/mL (≈ 56.5 µM)
MIC [20]: 50 µg/mL (≈ 141 µM)
zone of inhibition at 5000 µg/mL [21]: 22 mm
MIC [22]: 100 µg/mL (≈ 283 µM)
growth at 0.1 µM [23]: 100%
GI50 [24]: 33 µM
LC50 [24]: > 100 µM
TGI [24]: 73.3 µM
growth inhibition (GI) [24]: Dose-dependent effect
MIC [25]: 100 µg/mL (≈ 283 µM)

CCOc1ccc2sc(S(C)(=O)=O)nc2c1N
growth at 100 µM [1]: -31.9%
Activity [2]: Dose-dependent effect
MIC [3]: 10 µg/mL (≈ 36.7 µM)
zone of inhibition at 1000 µg/mL [4]: 17 mm
growth at 1 µM [5]: 93%
zone of inhibition at 1000 µg/mL [6]: ≤ 7 mm
growth at 10 µM [8]: 65.6%
MIC [10]: 10 µg/mL (≈ 36.7 µM)
zone of inhibition at 5000 µg/mL [12]: 19 mm
zone of inhibition at 5000 µg/mL [14]: ≤ 7 mm
MIC [15]: 4 µg/mL (≈ 14.7 µM)
MIC [17]: 8 µg/mL (≈ 29.4 µM)
zone of inhibition at 1000 µg/mL [18]: ≤ 7 mm
MIC [19]: 10 µg/mL (≈ 36.7 µM)
MIC [20]: 10 µg/mL (≈ 36.7 µM)
zone of inhibition at 5000 µg/mL [21]: ≤ 7 mm
growth at 0.1 µM [23]: 99.5%
GI50 [24]: 34 µM
LC50 [24]: > 100 µM
TGI [24]: 74.3 µM
growth inhibition (GI) [24]: Dose-dependent effect

CCOc1ccc2sc(S(C)(=O)=O)nc2c1S(=O)(=O)Nc1ccc([N+](=O)[O-])cc1
growth at 100 µM [1]: -67.8%
Activity [2]: Dose-dependent effect
zone of inhibition at 1000 µg/mL [4]: 14 mm
growth at 1 µM [5]: 46.2%
zone of inhibition at 1000 µg/mL [6]: 9 mm
MIC [7]: 10 µg/mL (≈ 21.9 µM)
growth at 10 µM [8]: -12.3%
MIC [9]: 20 µg/mL (≈ 43.7 µM)
MIC [11]: 50 µg/mL (≈ 109 µM)
zone of inhibition at 5000 µg/mL [12]: ≤ 7 mm
MIC [13]: 20 µg/mL (≈ 43.7 µM)
zone of inhibition at 5000 µg/mL [14]: 10 mm
MIC [16]: 10 µg/mL (≈ 21.9 µM)
zone of inhibition at 1000 µg/mL [18]: ≤ 7 mm
zone of inhibition at 5000 µg/mL [21]: 16 mm
MIC [22]: 10 µg/mL (≈ 21.9 µM)
growth at 0.1 µM [23]: 98.3%
GI50 [24]: 0.22 µM
LC50 [24]: 81.5 µM
TGI [24]: 40.8 µM
growth inhibition (GI) [24]: Dose-dependent effect
MIC [25]: 10 µg/mL (≈ 21.9 µM)

OC(Cn1cncn1)(Cn1cncn1)c1ccc(F)cc1F [FLUCONAZOLE]
MIC [3]: 2 µg/mL (≈ 6.53 µM)
MIC [10]: 2 µg/mL (≈ 6.53 µM)
MIC [15]: 4 µg/mL (≈ 13.1 µM)
MIC [17]: 4 µg/mL (≈ 13.1 µM)
MIC [19]: 2 µg/mL (≈ 6.53 µM)
MIC [20]: 2 µg/mL (≈ 6.53 µM)

CCOc1ccc2sc(S(C)(=O)=O)nc2c1S(=O)(=O)NC(C)(C)C
growth at 100 µM [1]: -76.3%
Activity [2]: Dose-dependent effect
zone of inhibition at 1000 µg/mL [4]: ≤ 7 mm
growth at 1 µM [5]: 42.1%
zone of inhibition at 1000 µg/mL [6]: 9 mm
MIC [7]: 8 µg/mL (≈ 20.4 µM)
growth at 10 µM [8]: -6.7%
MIC [9]: 20 µg/mL (≈ 51 µM)
MIC [11]: 50 µg/mL (≈ 127 µM)
zone of inhibition at 5000 µg/mL [12]: ≤ 7 mm
MIC [13]: 20 µg/mL (≈ 51 µM)
zone of inhibition at 5000 µg/mL [14]: 10 mm
MIC [16]: 10 µg/mL (≈ 25.5 µM)
zone of inhibition at 1000 µg/mL [18]: ≤ 7 mm
zone of inhibition at 5000 µg/mL [21]: 13 mm
MIC [22]: 10 µg/mL (≈ 25.5 µM)
growth at 0.1 µM [23]: 97.9%
GI50 [24]: 0.6 µM
LC50 [24]: 76.6 µM
TGI [24]: 38.6 µM
growth inhibition (GI) [24]: Dose-dependent effect
MIC [25]: 10 µg/mL (≈ 25.5 µM)
